Data on 31 molecules can be found in patent US20100120762A1, “Triazine derivatives as inhibitors of phosphodiesterases” (WYETH, priority 2008, published 2010).

Read-outs that look alike come from different tables or passages of the source. A value given as a limit tells only on which side of the number the result lay.

For data set [1], the target named is T1, PDE2A (NM002599) (Homo sapiens, UniProt O00408).
T1 construct: made in house; host or cells: baculovirus / SF21 insect cells
Briefly: Inhibition of recombinant PDE2A (expressed in baculovirus/SF21-cells). It is filed as biochemical. In outline: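 Membrane fraction from SF21 cells, assayed in 50 mM Tris-HCl/5 mM MgCl2 (pH 7.4) with 0.5 μM [3H]-cAMP plus 1000 nM cGMP as stimulator; non-specific activity was measured without cGMP. Reaction ran 30 min at 37° C, was stopped with SPA beads and read by scintillation counting. IC50 came from a Hill-plot 2-parameter model.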

The target in data set [2] is T2, PDE10A1 (AB 020593) (Homo sapiens, UniProt Q9Y233).
T2 construct: made in house; host or cells: baculovirus / SF21 insect cells (gene synthesized by Entelechon GmbH)
Briefly: Inhibition of recombinant PDE10A (baculovirus/SF21 system). It is filed as biochemical. In outline:
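Cytosolic PDE10A1 expressed in SF21 cells via baculovirus, incubated with 0.1 μM [3H]-cAMP in 50 mM Tris-HCl/5 mM MgCl2, pH 7.4, 30 min at 37 °C. SPA-bead scintillation read-out, with enzyme-free wells as background. IC50 from Hill plot, 2-parameter model.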

Setting [3] is: recombinant PDE2A, 0.5 μM [3H]-cAMP, 1000 nM cGMP, 37° C., 30 minutes, SPA, read-out: PDE2A IC50.
Setting [4] is: recombinant cytosolic PDE10A, 0.1 μM [3H]-cAMP, 37° C., 30 minutes, SPA, read-out: PDE10A IC50.

T2 sequence (Q9Y233 other isoform, or with tags, fused parts or gaps): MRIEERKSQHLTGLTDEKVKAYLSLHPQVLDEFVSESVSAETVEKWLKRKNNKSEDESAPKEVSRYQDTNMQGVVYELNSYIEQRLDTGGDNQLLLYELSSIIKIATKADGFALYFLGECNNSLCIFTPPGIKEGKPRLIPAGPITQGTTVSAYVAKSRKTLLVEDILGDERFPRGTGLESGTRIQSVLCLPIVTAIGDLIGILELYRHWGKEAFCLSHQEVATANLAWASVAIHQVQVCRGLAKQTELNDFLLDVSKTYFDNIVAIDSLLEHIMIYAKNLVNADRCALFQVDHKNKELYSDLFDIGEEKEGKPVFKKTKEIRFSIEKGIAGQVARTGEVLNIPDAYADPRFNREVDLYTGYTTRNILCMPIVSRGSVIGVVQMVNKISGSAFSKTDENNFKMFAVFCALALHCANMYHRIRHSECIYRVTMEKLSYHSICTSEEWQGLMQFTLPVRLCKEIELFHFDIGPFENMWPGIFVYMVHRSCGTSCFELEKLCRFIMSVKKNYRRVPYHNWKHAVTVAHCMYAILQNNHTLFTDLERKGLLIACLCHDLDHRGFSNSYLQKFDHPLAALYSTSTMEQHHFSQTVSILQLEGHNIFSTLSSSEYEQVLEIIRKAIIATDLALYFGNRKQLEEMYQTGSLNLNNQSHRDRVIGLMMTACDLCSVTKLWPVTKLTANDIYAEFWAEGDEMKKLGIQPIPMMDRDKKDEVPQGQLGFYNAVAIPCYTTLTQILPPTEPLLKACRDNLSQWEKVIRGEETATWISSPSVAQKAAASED
T1 sequence (O00408 whole entry): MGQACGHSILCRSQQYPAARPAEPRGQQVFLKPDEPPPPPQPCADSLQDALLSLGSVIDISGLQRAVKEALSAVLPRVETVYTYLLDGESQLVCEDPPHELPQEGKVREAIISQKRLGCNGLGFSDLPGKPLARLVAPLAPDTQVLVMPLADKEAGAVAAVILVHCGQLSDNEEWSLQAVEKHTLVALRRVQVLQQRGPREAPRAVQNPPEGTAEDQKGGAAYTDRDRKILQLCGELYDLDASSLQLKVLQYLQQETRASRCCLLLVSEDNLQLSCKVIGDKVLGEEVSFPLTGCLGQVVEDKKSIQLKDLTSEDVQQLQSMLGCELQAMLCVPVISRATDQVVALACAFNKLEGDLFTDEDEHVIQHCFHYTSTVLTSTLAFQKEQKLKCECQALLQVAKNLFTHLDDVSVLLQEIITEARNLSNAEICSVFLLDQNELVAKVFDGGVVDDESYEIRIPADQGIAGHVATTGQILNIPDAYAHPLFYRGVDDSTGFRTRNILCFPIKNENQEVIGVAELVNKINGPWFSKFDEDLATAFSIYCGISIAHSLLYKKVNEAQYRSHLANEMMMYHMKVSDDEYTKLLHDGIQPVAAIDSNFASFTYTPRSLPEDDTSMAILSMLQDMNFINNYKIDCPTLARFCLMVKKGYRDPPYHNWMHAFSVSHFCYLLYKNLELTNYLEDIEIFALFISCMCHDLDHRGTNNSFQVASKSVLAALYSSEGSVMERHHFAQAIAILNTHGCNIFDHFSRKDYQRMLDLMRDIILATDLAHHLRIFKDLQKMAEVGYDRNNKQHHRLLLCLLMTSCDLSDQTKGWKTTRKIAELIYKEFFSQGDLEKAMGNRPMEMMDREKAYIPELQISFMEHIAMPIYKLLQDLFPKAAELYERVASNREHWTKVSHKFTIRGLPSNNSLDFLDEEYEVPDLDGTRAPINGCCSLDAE

In general, IC50 refers to the point on the concentration scale where inhibition reaches its midpoint. By melting point is commonly meant the temperature of the solid-liquid transition. For `COc1ccc2nnc3c(C)ncn3c2n1` [Example 5, 8-methoxy-3-methyl-imidazo[5,1-c]-pyrido[2,3-e][1,2,4]triazine], the melting point was 213 to 214 °C. The IC50 in data set [1] (setting [3]) is greater than 10000 nM. The 50% inhibitory concentration (IC50) in data set [2] (setting [4]) is greater than 1000 nM.
In turn, `COc1ccc2nnc3c(-c4ccccc4)ncn3c2n1` [Example 124, 8-Methoxy-3-phenyl-imidazo[5,1-c]pyrido[2,3-e][1,2,4]triazine] yielded a melting point of 225 to 227 °C. The IC50 in data set [1] (setting [3]) is greater than 500 nM. Besides, the IC50 in data set [2] (setting [4]) was greater than 500 nM.
In turn, `Cc1nc(-c2ccccc2Cl)n2c1nnc1ccc(N3CCOCC3)nc12` [Example 123, 1-(2-Chloro-phenyl)-3-methyl-8-morpholin-4-yl-imidazo[5,1-c]pyrido[2,3-e][1,2,4]triazine] returned a melting point of 251 to 254 °C. Further, the half-maximal inhibitory concentration (IC50) in data set [1] (setting [3]) amounted to 5.13 nM. In addition, the IC50 in data set [2] (setting [4]) worked out at 15.7 nM.
The molecule `COc1ccc2nnc3c(C)nc(-c4ccccc4)n3c2n1` [Example 4, 8-methoxy-3-methyl-1-phenyl-imidazo[5,1-c]-pyrido[2,3-e][1,2,4]triazine] gave a melting point of 214 to 217 °C. Moreover, in data set [1] (setting [3]), the IC50 worked out at 89.3 nM. Also, the IC50 in data set [2] (setting [4]) turned out to be 131 nM.
Consider `COc1ccc2nnc3c(C)nc(-c4ccccc4Oc4ccccc4)n3c2n1` [Example 105, 8-Methoxy-3-methyl-1-(2-phenoxy-phenyl)-imidazo[5,1-c]pyrido[2,3-e][1,2,4]triazine], for which the IC50 in data set [1] (setting [3]) turned out to be 61.7 nM; in data set [2] (setting [4]), 817 nM.
Take `COc1ccnc2c1nnc1c(C)nc(-c3ccncc3C)n12` [Example 114, 4-methoxy-7-methyl-9-(3-methylpyridin-4-yl)imidazo[5,1-c]pyrido[2,3-e][1,2,4]triazine]: the IC50 was 2060 nM in data set [1] (setting [3]) and 10.1 nM in data set [2] (setting [4]).
The matching figures for `COc1ccc2nnc3c(C)nc(-c4cc(Cl)ccc4C(F)(F)F)n3c2n1` [Example 99, 9-[5-chloro-2-(trifluoromethyl)phenyl]-2-methoxy-7-methylimidazo[5,1-c]pyrido[2,3-e][1,2,4]triazine]: 79.6 nM and 732 nM.
The matching figures for `COc1ccc2nnc3c(C)nc(-c4cccc(Cl)c4)n3c2n1` [Example 93, 9-(3-chlorophenyl)-2-methoxy-7-methylimidazo[5,1-c]pyrido[2,3-e][1,2,4]triazine]: 45.8 nM and 46.8 nM.
Take `COc1ccc2nnc3c(C)nc(-c4ccc5[nH]ccc5c4)n3c2n1` [Example 81, 9-(1H-indol-5-yl)-2-methoxy-7-methylimidazo[5,1-c]pyrido[2,3-e][1,2,4]triazine]: the figures for the IC50 in data set [1] and in data set [2] were 186 nM and 62.6 nM, respectively.
Turning to `COc1ccc2nnc3c(C)nc(-c4ccoc4)n3c2n1` [Example 78, 9-furan-3-yl-2-methoxy-7-methylimidazo[5,1-c]pyrido[2,3-e][1,2,4]triazine], the results for the IC50 in data set [1] (setting [3]) and in data set [2] (setting [4]) were 1390 nM and 482 nM, respectively.
As for `COc1ccc2nnc3c(C)nc(-c4ccccc4C(F)(F)F)n3c2n1` [Example 102, 9-[2-(trifluoromethyl)phenyl]-2-methoxy-7-methylimidazo[5,1-c]pyrido[2,3-e][1,2,4]triazine], the IC50 stood at 48.6 nM in data set [1] (setting [3]) and 96.8 nM in data set [2] (setting [4]).
On the same counts, the results for `COc1ccc2nnc3c(C)nc(-c4ccc(OC)c(Cl)c4)n3c2n1` [Example 95, 9-(3-chloro-4-methoxyphenyl)-2-methoxy-7-methylimidazo[5,1-c]pyrido[2,3-e][1,2,4]triazine] are 772 nM and greater than 500 nM.
Take “1-(2-Fluoro-5-trifluoromethyl-phenyl)-8-methoxy-3-methyl-imidazo[5,1-c]pyrido[2,3-e][1,2,4]triazine [Example 110]”: the IC50 in data set [1] (setting [3]) amounted to 52.2 nM; in data set [2] (setting [4]) it was 341 nM.
On the same counts, the results for `COc1ccc2nnc3c(C)nc(-c4cccnc4OC)n3c2n1` [Example 32, 2-methoxy-9-(2-methoxypyridin-3-yl)-7-methylimidazo[5,1-c]pyrido[2,3-e][1,2,4]triazine] are 188 nM and 209 nM.
Turning to `CCOc1ccc(Cl)c(-c2nc(C)c3nnc4ccc(OC)nc4n23)c1` [Example 74, 9-(2-chloro-5-ethoxyphenyl)-2-methoxy-7-methylimidazo[5,1-c]pyrido[2,3-e][1,2,4]triazine], the IC50 turned out to be 10.1 nM in data set [1] (setting [3]) and 87.9 nM in data set [2] (setting [4]).
The matching figures for `COc1ccc2nnc3c(C)nc(-c4cccc(OC(F)(F)F)c4)n3c2n1` [Example 25, 2-methoxy-7-methyl-9-[3-(trifluoromethoxy)phenyl]imidazo[5,1-c]pyrido[2,3-e][1,2,4]triazine]: 348 nM and greater than 1000 nM.
As to `CCOc1ccc(F)c(-c2nc(C)c3nnc4ccc(OC)nc4n23)c1` [Example 28, 9-(5-ethoxy-2-fluorophenyl)-2-methoxy-7-methylimidazo[5,1-c]pyrido[2,3-e][1,2,4]triazine], the concentration for half-maximal inhibition (IC50) in data set [1] (setting [3]) was 28.6 nM; in data set [2] (setting [4]) it was 114 nM.
The matching figures for `CCOc1cc(F)cc(-c2nc(C)c3nnc4ccc(OC)nc4n23)c1` [Example 29, 9-(3-ethoxy-5-fluorophenyl)-2-methoxy-7-methylimidazo[5,1-c]pyrido[2,3-e][1,2,4]triazine]: 380 nM and 341 nM.
On the same counts, the results for `COc1ccc2nnc3c(C)nc(-c4cccc(F)c4C)n3c2n1` [Example 56, 9-(3-fluoro-2-methylphenyl)-2-methoxy-7-methylimidazo[5,1-c]pyrido[2,3-e][1,2,4]triazine] are 21.3 nM and 35.6 nM.
Turning to `COc1ccc2nnc3c(C)nc(-c4ccc(F)cc4C)n3c2n1` [Example 57, 9-(4-fluoro-2-methylphenyl)-2-methoxy-7-methylimidazo[5,1-c]pyrido[2,3-e][1,2,4]triazine], the IC50 in data set [1] (setting [3]) amounted to 21.2 nM; in data set [2] (setting [4]) it was 64.4 nM.
On the same counts, the results for `COc1ccc2nnc3c(C)nc(-c4cccc(OC)c4Cl)n3c2n1` [Example 39, 9-(2-chloro-3-methoxyphenyl)-2-methoxy-7-methylimidazo[5,1-c]pyrido[2,3-e][1,2,4]triazine] are 111 nM and 115 nM.
`COc1ccc2nnc3c(C)nc(-c4cc(C(C)C)ccc4OC)n3c2n1` [Example 16, 2-methoxy-9-[2-methoxy-5-(1-methylethyl)phenyl]-7-methylimidazo[5,1-c]pyrido[2,3-e][1,2,4]triazine]: the IC50 in data set [1] (setting [3]) was found to be 274 nM; in data set [2] (setting [4]), 3330 nM.
The matching figures for `COc1ccc2nnc3c(C)nc(-c4cncc(F)c4)n3c2n1` [Example 43, 9-(5-fluoropyridin-3-yl)-2-methoxy-7-methylimidazo[5,1-c]pyrido[2,3-e][1,2,4]triazine]: 272 nM and 367 nM.
On to `COc1ccc2nnc3c(C)nc(-c4cccc(Cl)c4Cl)n3c2n1` [Example 90, 9-(2,3-dichlorophenyl)-2-methoxy-7-methylimidazo[5,1-c]pyrido[2,3-e][1,2,4]triazine], for which the figures for the IC50 in data set [1] (setting [3]) and in data set [2] (setting [4]) were 49.3 nM and 41 nM, respectively.
Take `COc1cc(-c2nc(C)c3nnc4ccc(OC)nc4n23)c(Cl)cn1` [Example 46, 9-(5-chloro-2-methoxypyridin-4-yl)-2-methoxy-7-methylimidazo[5,1-c]pyrido[2,3-e][1,2,4]triazine]: the values for the IC50 in data set [1] (setting [3]) and in data set [2] (setting [4]) were 70.1 nM and 191 nM, respectively.
In the case of `COc1ccc2nnc3c(C)nc(-c4ccc(F)cc4Cl)n3c2n1` [Example 75, 9-(2-chloro-4-fluorophenyl)-2-methoxy-7-methylimidazo[5,1-c]pyrido[2,3-e][1,2,4]triazine], the results for the concentration for half-maximal inhibition (IC50) in data set [1] (setting [3]) and in data set [2] (setting [4]) were 11.8 nM and 13.1 nM, respectively.
The matching figures for `COc1cc(OC)cc(-c2nc(C)c3nnc4ccc(OC)nc4n23)c1` [Example 26, 9-(3,5-dimethoxyphenyl)-2-methoxy-7-methylimidazo[5,1-c]pyrido[2,3-e][1,2,4]triazine]: 125 nM and 120 nM.
On to `COc1ccc(C)c(-c2nc(C)c3nnc4ccc(OC)nc4n23)c1` [Example 100, 2-methoxy-9-(5-methoxy-2-methylphenyl)-7-methylimidazo[5,1-c]pyrido[2,3-e][1,2,4]triazine], for which the IC50 was determined as 5.52 nM in data set [1] (setting [3]) and 55.6 nM in data set [2] (setting [4]).
For the molecule `CCOc1ncccc1-c1nc(C)c2nnc3ccc(OC)nc3n12` [Example 14, 9-(2-ethoxypyridin-3-yl)-2-methoxy-7-methylimidazo[5,1-c]pyrido[2,3-e][1,2,4]triazine], the concentration for half-maximal inhibition (IC50) in data set [1] (setting [3]) came to 196 nM; in data set [2] (setting [4]), 391 nM.
With `COc1ccc(Cl)c(-c2nc(C)c3nnc4ccc(OC)nc4n23)c1` [Example 59, 9-(2-chloro-5-methoxyphenyl)-2-methoxy-7-methylimidazo[5,1-c]pyrido[2,3-e][1,2,4]triazine], the IC50 in data set [1] (setting [3]) turned out to be 2.2 nM; in data set [2] (setting [4]), 40.9 nM.
Consider `COc1ccc2nnc3c(C)nc(-c4cccnc4C)n3c2n1` [Example 50, 2-methoxy-7-methyl-9-(2-methylpyridin-3-yl)imidazo[5,1-c]pyrido[2,3-e][1,2,4]triazine], for which the IC50 in data set [1] (setting [3]) came out at 15.9 nM; in data set [2] (setting [4]), 126 nM.
